# Assay results as given in patent US7605182B2, “Compounds that selectively bind to membranes of apoptotic cells” (Aposense Ltd., priority 2003, dated 2009).
# System: apoptotic Jurkat cells
# Experiment: Selective binding of NST-892 to apoptotic Jurkat cells; flow-cytometric (FACS) analysis
# Format: cell-based, human
# Details: 500 μM compound, 20 minutes
# Procedure: Cultured Jurkat cells (human […] T cell leukemia cells) were grown in suspension in RPMI medium (Beit-Haemek, Israel), supplemented with 10% of fetal calf serum (FCS), 4 mM of L-glutamine, 1 mM of sodium pyruvate, 1 mM CaCl2 and antibiotics (100 units/ml penicilin; 100 μg/ml streptomycin and 12.5 units/ml of nystatin) Prior to induction of apoptosis, medium was replaced with HBS buffer (10 mM HEPES; 140 mM NaCl, 1 mM CaCl). Apoptosis was then triggered by treatment with anti-Fas Ab (0.1 μg/ml; 2.5 hrs). Both control cells and apoptotic cells were then incubated for 20 minutes with 500 μM of NST-892 dissolved in 0.1 m NaPpi pH=7.4. Subsequently, cells were co-stained with propidium iodide (PI), a marker of membrane disintegration during late phases of cell death, and the selective binding of the NST-892 compounds to control and apoptotic cells was determined by flow cytometric (FACS) analysis using Becton-Dickinson cell sorter and CellQuest software (excitation was at 356 nm and emission was measured at 530 nm).
compound,measurement,setting,value
"CN(C)c1cccc2c(S(=O)(=O)NC(C(=O)O)c3cccc4c(C(N)C(=O)O)cccc34)cccc12 (centres unmarked) [NST-892, Mono Dansyl Naphthalene Diglycine]","percent of identified early apoptotic events within the population (cells binding NST-892, excluding PI)",apoptotic Jurkat cells (anti-Fas Ab 0.1 μg/ml; 2.5 hrs),68.9%
same,"percent of identified early apoptotic events within the population (cells binding NST-892, excluding PI)",non-treated control Jurkat cells,3.3%
